# Assay results reported in patent US10385145B1, “Liquid photo initiating compound and uses of the same” (CHITEC TECHNOLOGY CO., LTD., priority 2018, dated 2019).
# Where two headings read alike, the source gives them in different places.
# Legend:
# [1] = Photo speed performance test; conditions: 6 parts by weight photoinitiator + 2 parts Chivacure DETX in 100 parts black flexo formulation; wet film 25.15 μm; Fusion F300 D-bulb 300 W/inch
# Excerpt: The black flexo formulation containing Oligomer 6325-100, EM2411 and carbon black (viscosity: 1750 cP) was mixed with a photoinitiator to carry out the photo speed performance test. […] The resultant mixture was coated on a printable pearlescent film (wet film thickness: 25.15 μm); and the coated printable pearlescent film was exposed to an UV light (Fusion F300, D-bulb, 300 W/inch) for curing.
# [2] = Viscosity variation test, 0° C. atmosphere for 7 days; type: physicochemical; conditions: for Viscosity, Mixture I, 7 days / Viscosity, Mixture I, Initial: 4 parts by weight photoinitiator in Mixture I; for Viscosity, Mixture I, 7 days / Viscosity, Mixture II, 7 days / Viscosity, Mixture III, 7 days: after 7 days in 0° C. atmosphere; for Viscosity, Mixture I, Initial / Viscosity, Mixture II, Initial / Viscosity, Mixture III, Initial: before exposure; for Viscosity, Mixture II, 7 days / Viscosity, Mixture II, Initial: 4 parts by weight photoinitiator in Mixture II; for Viscosity, Mixture III, 7 days / Viscosity, Mixture III, Initial: 4 parts by weight photoinitiator in Mixture III
# [3] = Acute oral toxicity test (LD50), OECD Test Guidelines 423; type: in vivo; conditions: for LD50: acute oral, OECD 423; for Acute oral toxicity assessment: judged from LD50 exceeding 5000 mg/kg
# [4] = in UV inks; background statement; cited from earlier work
# [5] = background statement; cited from earlier work
# [6] = Photoinitiator dosage test (curing performance); set-up: key to Curing performance, 1 time of UV light treatment / Curing performance, 2 times of UV light treatment / Curing performance, 3 times of UV light treatment / Curing performance, 4 times of UV light treatment: X: Not tack-free; Δ: Tack-free but not through-cure; ◯: Tack-free and through-cure; conditions: for Curing performance, 1 time of UV light treatment / Curing performance, 2 times of UV light treatment / Curing performance, 3 times of UV light treatment / Curing performance, 4 times of UV light treatment: 365 nm, 4 W/inch
# Experimental: The commercially available black flexo ink without a photoinitiator was mixed with a photoinitiator to carry out the photo speed performance test, and the effect of the amount of photo initiating compound Ia on the photo speed performance was evaluated. […] The resultant mixture was coated on a PET film with primer (means for improving adhesion) (dry film thickness: 5 μm). The coated PET film was exposed to an UV light (wavelength: 365 nm; 4 W/inch) for curing.
# [7] = Solubility test: dissolution in acrylate mixtures I to III; type: physicochemical; conditions: one-hour ultrasonication at room temperature
# Experimental: Mixtures I to III were prepared according to the composition provided below, and then 6 parts by weight of photoinitiator Trgacure® 369 (available from IGM), photoinitiator R-gen® 919 (available from Chitec Technology Co., Ltd.) or photo initiating compound Ia was added to each of the mixtures I to III.
# [8] = background statement, relative to Irgacure 369 where stated; cited from earlier work
# [9] = background statement; cited from earlier work; remark: listed apart in the source
# [10] = 4 parts by weight photoinitiator
# [11] = 8 parts by weight photoinitiator
structure (smiles),measurement,setting,value
CCC(Cc1ccccc1)(C(=O)c1ccc(N2CCOCC2)cc1)N(C)C (stereo not drawn) [Irgacure® 369],Photo speed,[1],120 m/minute
same,"Viscosity, Mixture I, 7 days",[2],60.4 cP
same,"Viscosity, Mixture I, Initial",[2],52.7 cP
same,"Viscosity, Mixture II, 7 days",[2],Precipitate
same,"Viscosity, Mixture II, Initial",[2],385.0 cP
same,"Viscosity, Mixture III, 7 days",[2],Precipitate
same,"Viscosity, Mixture III, Initial",[2],487.0 cP
same,LD50,[3],>5000 mg/kg
same,LD50,"[3]; in vivo, read-out: LD50",> 5000 mg/kg
same,Acute oral toxicity assessment,[3],no acute oral toxicity
same,Dosage above which prone to precipitate,[4],over 4 wt %
same,Reproductive toxicity,[5],reproductive toxicity
same,"Curing performance, 1 time of UV light treatment",[6]; [10],X
same,"Curing performance, 2 times of UV light treatment",[6]; [10],X
same,"Curing performance, 3 times of UV light treatment",[6]; [10],X
same,"Curing performance, 4 times of UV light treatment",[6]; [10],Δ
same,Dissolution in black flexo ink,[6]; [11],Incomplete dissolution
CCC(Cc1ccc(C)cc1)(C(=O)c1ccc(N2CCOCC2)cc1)N(C)C (stereo not drawn) [Irgacure® 379],Reproductive toxicity,[5],reproductive toxicity
CCC1(C)OCCN1c1ccc(C(=O)C(CC)(Cc2ccccc2)N(C)C)cc1 (stereo not drawn) [Photo initiating compound Ia],Photo speed,[1],120 m/minute
same,"Dissolution, Mixture I",[7]; 6 parts by weight photoinitiator in Mixture I,Completely
same,"Dissolution, Mixture II",[7]; 6 parts by weight photoinitiator in Mixture II,Completely
same,"Dissolution, Mixture III",[7]; 6 parts by weight photoinitiator in Mixture III,Completely
same,Precipitate after exposure to 0° C. atmosphere for 7 days,[2]; 4 parts by weight in mixtures I to III,no precipitate was observed
same,"Viscosity, Mixture I, 7 days",[2],51.2 cP
same,"Viscosity, Mixture I, Initial",[2],41.6 cP
same,"Viscosity, Mixture II, 7 days",[2],406.7 cP
same,"Viscosity, Mixture II, Initial",[2],351.3 cP
same,"Viscosity, Mixture III, 7 days",[2],547.8 cP
same,"Viscosity, Mixture III, Initial",[2],433.1 cP
same,LD50,[3],>5000 mg/kg
same,LD50,"[3]; in vivo, read-out: LD50",> 5000 mg/kg
same,Acute oral toxicity assessment,[3],no acute oral toxicity
same,"Curing performance, 1 time of UV light treatment",[6]; [10],X
same,"Curing performance, 2 times of UV light treatment",[6]; [10],X
same,"Curing performance, 3 times of UV light treatment",[6]; [10],X
same,"Curing performance, 4 times of UV light treatment",[6]; [10],Δ
same,"Curing performance, 1 time of UV light treatment",[6]; [11],Δ
same,Solubility in black flexo ink,[6]; amount increased up to 12 parts by weight,no solubility issue was observed
C=CCC(C)(C(=O)c1ccccc1)N1CCOCC1 (stereo not drawn) [compound 93],Photo speed,[8],poor photospeeds
C=CCC(C)(C(=O)c1ccccc1)N(C)C (stereo not drawn) [compound 95],Photo speed,[8],poor photospeeds
CN(C)C(C)(C(=O)c1ccccc1)c1ccccc1 (stereo not drawn) [compound 96],Photo speed,[8],poor photospeeds
C=CCC(C(=O)c1ccccc1)(c1ccccc1)N(C)C (stereo not drawn) [compound 100],Photo speed,[8],poor photospeeds
CCC(Cc1ccccc1)(C(=O)c1ccc(N(C)CCOC(C)=O)cc1)N(C)C (stereo not drawn) [compound IIa],Acute oral toxicity,[9],high acute oral toxicity
same,Photo speed,[8],comparable to Irgacure® 369
CCCCCCNc1ccc(C(=O)C(CC)(Cc2ccccc2)N(C)C)cc1 (stereo not drawn) [compound I],Photo speed,[8],comparable to that of Irgacure® 369
